Measured values as given in ChEMBL document CHEMBL1201862, “PubChem BioAssay data set” (2004).
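Protocol summary: plate cells (96-well), add compound at 5 concentrations, incubate 48 h, interpolate endpoints linearly. GI50 marks 50% less growth.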 Activity calls are given as the source filed them. No stated cut-off is given here; in the data, active = GI50 up to about 1.1 µM and inactive = higher. *1 amine or outer side, *2 acyl side, *3 side chain or, on linkers, in order; H or OH if unused. Where a SMILES comes first, the peptide text is derived from it. Square brackets hold non-standard residues; d marks the D form. Bridges are numbered along the chain shown (N, C = ends). Roman numbers before positions name the chains, in order. Peptide text beside a SMILES is read from it. [ ]: non-standard residue; d: D form. * marks the point of attachment. ξ: configuration not given here. Actinocin(9to1) = Cc1c2oc3c(C)ccc(C(=O)[*:1])c3nc-2c(C(=O)[*:2])c(N)c1=O; NMeV = CN[CH](C(=O)O)C(C)C; ξD = NC(CC(=O)O)C(=O)O; Ac3c = NC1(C(=O)O)CC1; Boc = CC(C)(C)OC(=O)*; OtBu = CC(C)(C)O*; Sar = CNCC(=O)O

What was measured:
Assay in all cases: NCI-60 cell line screen, 48 h
SN12C = system: SN12C
HOP-92 = system: HOP-92
MDA-N = system: MDA-N
SF-539 = system: SF-539
NCI-H460 = system: NCI-H460
MDA-MB-435 = system: MDA-MB-435
M14 = system: M14
OVCAR-5 = system: OVCAR-5
CCRF-CEM = system: CCRF-CEM
BT-549 = system: BT-549
SF-268 = system: SF-268
PC-3 = system: PC-3
MCF7 = system: MCF7
U-251 = system: U-251
Hs-578T = system: Hs-578T
T47D = system: T47D
NCI/ADR-RES = system: NCI/ADR-RES
UO-31 = system: UO-31
IGROV-1 = system: IGROV-1
HCT-116 = system: HCT-116

Measured: GI50

COc1cc2c(cc1OCc1ccccc1)NC(=S)[C@@H]1CCCN1C2=S
inactive: SN12C > 100 µM | HOP-92 94 µM | MDA-N > 100 µM | SF-539 17.4 µM | NCI-H460 > 100 µM | MDA-MB-435 > 100 µM | M14 > 100 µM | OVCAR-5 > 100 µM | CCRF-CEM > 100 µM | BT-549 > 100 µM | SF-268 > 100 µM | PC-3 > 100 µM | MCF7 95.5 µM | U-251 49.4 µM | Hs-578T 4.84 µM | T47D 82.4 µM | NCI/ADR-RES > 100 µM | UO-31 > 100 µM | IGROV-1 80.7 µM | HCT-116 > 100 µM

O=C(NCCN1CCCCC1)c1ccc(Br)cc1
inactive: SN12C > 100 µM | HOP-92 > 100 µM | MDA-N > 100 µM | NCI-H460 > 100 µM | MDA-MB-435 > 100 µM | M14 > 100 µM | OVCAR-5 > 100 µM | BT-549 > 100 µM | SF-268 > 100 µM | PC-3 > 100 µM | MCF7 > 100 µM | U-251 > 100 µM | Hs-578T > 100 µM | T47D > 100 µM | NCI/ADR-RES > 100 µM | UO-31 > 100 µM | IGROV-1 > 100 µM | HCT-116 > 100 µM

O=C(Nc1cccc(C(=O)NCCCO)c1)/C(=C/c1ccccc1)NC(=O)c1ccccc1
inactive: SN12C > 100 µM | HOP-92 > 100 µM | MDA-N > 100 µM | SF-539 > 100 µM | NCI-H460 > 100 µM | MDA-MB-435 > 100 µM | M14 > 100 µM | OVCAR-5 > 100 µM | CCRF-CEM > 100 µM | BT-549 > 100 µM | SF-268 > 100 µM | PC-3 > 100 µM | MCF7 > 100 µM | U-251 > 100 µM | Hs-578T > 100 µM | T47D > 100 µM | NCI/ADR-RES > 100 µM | UO-31 > 100 µM | IGROV-1 > 100 µM | HCT-116 > 100 µM

CCN(CCCl)CCCCNc1c2ccccc2nc2ccc(OC)cc12
inactive: M14 1.12 µM | BT-549 1.38 µM | Hs-578T 1.22 µM | NCI/ADR-RES 4.25 µM
active: SN12C < 0.023 µM | HOP-92 0.18 µM | MDA-N 0.676 µM | SF-539 0.653 µM | NCI-H460 0.0601 µM | MDA-MB-435 0.427 µM | OVCAR-5 0.659 µM | CCRF-CEM < 0.037 µM | SF-268 0.171 µM | PC-3 0.216 µM | MCF7 0.0141 µM | U-251 0.239 µM | T47D 0.191 µM | UO-31 1.11 µM | IGROV-1 0.163 µM | HCT-116 0.0542 µM

NC1C2C(CC(=O)O)OCC=C3CN4CCC1(C(=O)C(=O)O)C4CC32 (configuration not stated)
inactive: SN12C > 100 µM | HOP-92 > 100 µM | MDA-N > 100 µM | SF-539 > 100 µM | NCI-H460 > 100 µM | MDA-MB-435 > 100 µM | M14 > 100 µM | OVCAR-5 > 100 µM | CCRF-CEM > 100 µM | BT-549 > 100 µM | SF-268 > 100 µM | PC-3 > 100 µM | MCF7 > 100 µM | U-251 > 100 µM | Hs-578T > 100 µM | T47D > 100 µM | NCI/ADR-RES > 100 µM | UO-31 > 100 µM | IGROV-1 > 100 µM | HCT-116 > 100 µM

C=CS(=O)(=O)CCN1CC1
inactive: SN12C > 10 µM | HOP-92 > 10 µM | MDA-N > 10 µM | SF-539 > 10 µM | MDA-MB-435 > 10 µM | M14 > 10 µM | OVCAR-5 > 10 µM | CCRF-CEM > 10 µM | BT-549 > 10 µM | SF-268 > 10 µM | PC-3 > 10 µM | MCF7 > 10 µM | U-251 > 10 µM | Hs-578T > 10 µM | T47D > 10 µM | NCI/ADR-RES > 10 µM | IGROV-1 > 10 µM | HCT-116 > 10 µM

CN(NC(=O)c1cccs1)C1=NCCCN1
inactive: HOP-92 > 100 µM | MDA-N > 100 µM | SF-539 > 100 µM | NCI-H460 > 100 µM | MDA-MB-435 > 100 µM | M14 > 100 µM | OVCAR-5 > 100 µM | CCRF-CEM > 100 µM | BT-549 > 100 µM | SF-268 > 100 µM | PC-3 > 100 µM | MCF7 > 100 µM | U-251 > 100 µM | Hs-578T > 100 µM | T47D > 100 µM | NCI/ADR-RES > 100 µM | UO-31 > 100 µM | IGROV-1 > 100 µM | HCT-116 > 100 µM

O=C(O)c1cc(CCc2ccc(O)c(O)c2)ccc1O
inactive: SN12C > 100 µM | MDA-N 18.4 µM | SF-539 > 100 µM | NCI-H460 > 100 µM | MDA-MB-435 > 100 µM | M14 > 100 µM | OVCAR-5 > 100 µM | CCRF-CEM > 100 µM | BT-549 > 100 µM | SF-268 > 100 µM | PC-3 > 100 µM | MCF7 > 100 µM | U-251 > 100 µM | Hs-578T > 100 µM | T47D > 100 µM | NCI/ADR-RES > 100 µM | UO-31 > 100 µM | IGROV-1 > 100 µM | HCT-116 > 100 µM

Cc1ccc(S(=O)(=O)n2cncc2CO)cc1
inactive: SN12C > 100 µM | MDA-N > 100 µM | SF-539 > 100 µM | NCI-H460 > 100 µM | MDA-MB-435 > 100 µM | M14 > 100 µM | OVCAR-5 > 100 µM | CCRF-CEM > 100 µM | BT-549 > 100 µM | SF-268 > 100 µM | PC-3 > 100 µM | MCF7 > 100 µM | U-251 > 100 µM | Hs-578T > 100 µM | T47D > 100 µM | NCI/ADR-RES > 100 µM | UO-31 > 100 µM | IGROV-1 > 100 µM | HCT-116 > 100 µM

NC1CCCCC1.O=P(O)(O)C(O)/C=C/c1ccccc1 (configuration not stated)
inactive: SN12C > 100 µM | HOP-92 > 100 µM | MDA-N > 100 µM | NCI-H460 > 100 µM | MDA-MB-435 > 100 µM | M14 > 100 µM | OVCAR-5 > 100 µM | BT-549 > 100 µM | SF-268 > 100 µM | PC-3 > 100 µM | MCF7 > 100 µM | U-251 > 100 µM | Hs-578T > 100 µM | T47D > 100 µM | NCI/ADR-RES > 100 µM | UO-31 > 100 µM | IGROV-1 > 100 µM | HCT-116 > 100 µM

Cc1c2oc3c(C)ccc(C(=O)NC4C(=O)NC(Cc5ccccc5)C(=O)N5CCCC5C(=O)N(C)CC(=O)N(C)C(C(C)C)C(=O)OC4C)c3nc-2c(C(=O)NC2C(=O)NC(Cc3ccccc3)C(=O)N3CCCC3C(=O)N(C)CC(=O)N(C)C(C(C)C)C(=O)OC2C)c(N)c1=O (configuration not stated) (I: TFP[Sar][NMeV] / II: TFP[Sar][NMeV]; ester I:1-I:C, II:1-II:C; linker I:N-II:N via Actinocin(9to1); configuration not given here)
active: SN12C < 0.001 µM | MDA-N 0.00162 µM | SF-539 0.123 µM | NCI-H460 < 0.001 µM | MDA-MB-435 < 0.001 µM | M14 0.0105 µM | OVCAR-5 0.00484 µM | CCRF-CEM < 0.001 µM | BT-549 0.01 µM | SF-268 < 0.001 µM | PC-3 < 0.001 µM | MCF7 < 0.001 µM | U-251 < 0.001 µM | Hs-578T 0.0011 µM | T47D < 0.001 µM | NCI/ADR-RES 0.439 µM | UO-31 0.00354 µM | IGROV-1 < 0.001 µM | HCT-116 < 0.001 µM

COc1ccc(CC2CCc3nc(N)nc(N)c3C2)cc1OC (configuration not stated)
inactive: SN12C 22.9 µM | HOP-92 36 µM | SF-539 2.25 µM | MDA-MB-435 1.41 µM | OVCAR-5 1.51 µM | MCF7 1.15 µM | U-251 38.6 µM | Hs-578T > 56.1 µM | T47D 18.9 µM | NCI/ADR-RES 1.29 µM | UO-31 13.8 µM
active: MDA-N 0.0507 µM | NCI-H460 0.0411 µM | M14 0.851 µM | BT-549 0.246 µM | SF-268 0.173 µM | PC-3 0.0716 µM | IGROV-1 0.11 µM | HCT-116 0.0349 µM

COC(=O)C1(NC(=O)C(CC(=O)OC(C)(C)C)NC(=O)OC(C)(C)C)CC1 (configuration not stated) (Boc-[ξD](OtBu)-[Ac3c]-OMe)
inactive: SN12C > 100 µM | MDA-N > 100 µM | SF-539 > 100 µM | NCI-H460 > 100 µM | MDA-MB-435 > 100 µM | M14 > 100 µM | OVCAR-5 > 100 µM | CCRF-CEM > 100 µM | BT-549 > 100 µM | SF-268 > 100 µM | PC-3 > 100 µM | MCF7 > 100 µM | U-251 > 100 µM | Hs-578T > 100 µM | T47D > 100 µM | NCI/ADR-RES > 100 µM | UO-31 > 100 µM | IGROV-1 > 100 µM | HCT-116 > 100 µM

CCCSc1cc(Cl)c(C)cc1S(=O)(=O)n1ccnc1O
inactive: SN12C > 100 µM | MDA-N > 100 µM | SF-539 > 100 µM | NCI-H460 > 100 µM | MDA-MB-435 > 100 µM | M14 > 100 µM | OVCAR-5 > 100 µM | CCRF-CEM > 100 µM | BT-549 > 100 µM | SF-268 > 100 µM | PC-3 > 100 µM | MCF7 > 100 µM | U-251 > 100 µM | Hs-578T > 100 µM | T47D > 100 µM | NCI/ADR-RES > 100 µM | UO-31 > 100 µM | IGROV-1 > 100 µM | HCT-116 > 100 µM
